Results taken from PMC10905675, “INX-315, a Selective CDK2 Inhibitor, Induces Cell Cycle Arrest and Senescence in Solid Tumors” (Cancer Discovery, 2023).

Tests used:
PIM1 = biological target: T1, PIM1 (Homo sapiens, UniProt P11309); assay: SelectScreen ZLYTE; format: biochemical; conditions: INX-0315 at 100nM
T1 construct: purchased Thermo Fisher Scientific SelectScreen (plus Nanosyn / Reaction Biology for CDK/cyclin lines)
Summary of the method: (§1)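 Both platform types ran at predefined settings. Inhibitor was applied first at 100 nmol/L (1% DMSO), later in ten-point titrations spanning 1 µmol/L to 0.0495 nmol/L.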

CDC42 BPG (MRCKG) = biological target: T2, CDC42 BPG (MRCKG) (Homo sapiens, UniProt Q6DT37); assay: SelectScreen ZLYTE; format: biochemical; conditions: INX-0315 at 100nM
T2 construct: purchased Thermo Fisher Scientific SelectScreen (plus Nanosyn / Reaction Biology for CDK/cyclin lines)
T2 sequence (Q6DT37 whole entry): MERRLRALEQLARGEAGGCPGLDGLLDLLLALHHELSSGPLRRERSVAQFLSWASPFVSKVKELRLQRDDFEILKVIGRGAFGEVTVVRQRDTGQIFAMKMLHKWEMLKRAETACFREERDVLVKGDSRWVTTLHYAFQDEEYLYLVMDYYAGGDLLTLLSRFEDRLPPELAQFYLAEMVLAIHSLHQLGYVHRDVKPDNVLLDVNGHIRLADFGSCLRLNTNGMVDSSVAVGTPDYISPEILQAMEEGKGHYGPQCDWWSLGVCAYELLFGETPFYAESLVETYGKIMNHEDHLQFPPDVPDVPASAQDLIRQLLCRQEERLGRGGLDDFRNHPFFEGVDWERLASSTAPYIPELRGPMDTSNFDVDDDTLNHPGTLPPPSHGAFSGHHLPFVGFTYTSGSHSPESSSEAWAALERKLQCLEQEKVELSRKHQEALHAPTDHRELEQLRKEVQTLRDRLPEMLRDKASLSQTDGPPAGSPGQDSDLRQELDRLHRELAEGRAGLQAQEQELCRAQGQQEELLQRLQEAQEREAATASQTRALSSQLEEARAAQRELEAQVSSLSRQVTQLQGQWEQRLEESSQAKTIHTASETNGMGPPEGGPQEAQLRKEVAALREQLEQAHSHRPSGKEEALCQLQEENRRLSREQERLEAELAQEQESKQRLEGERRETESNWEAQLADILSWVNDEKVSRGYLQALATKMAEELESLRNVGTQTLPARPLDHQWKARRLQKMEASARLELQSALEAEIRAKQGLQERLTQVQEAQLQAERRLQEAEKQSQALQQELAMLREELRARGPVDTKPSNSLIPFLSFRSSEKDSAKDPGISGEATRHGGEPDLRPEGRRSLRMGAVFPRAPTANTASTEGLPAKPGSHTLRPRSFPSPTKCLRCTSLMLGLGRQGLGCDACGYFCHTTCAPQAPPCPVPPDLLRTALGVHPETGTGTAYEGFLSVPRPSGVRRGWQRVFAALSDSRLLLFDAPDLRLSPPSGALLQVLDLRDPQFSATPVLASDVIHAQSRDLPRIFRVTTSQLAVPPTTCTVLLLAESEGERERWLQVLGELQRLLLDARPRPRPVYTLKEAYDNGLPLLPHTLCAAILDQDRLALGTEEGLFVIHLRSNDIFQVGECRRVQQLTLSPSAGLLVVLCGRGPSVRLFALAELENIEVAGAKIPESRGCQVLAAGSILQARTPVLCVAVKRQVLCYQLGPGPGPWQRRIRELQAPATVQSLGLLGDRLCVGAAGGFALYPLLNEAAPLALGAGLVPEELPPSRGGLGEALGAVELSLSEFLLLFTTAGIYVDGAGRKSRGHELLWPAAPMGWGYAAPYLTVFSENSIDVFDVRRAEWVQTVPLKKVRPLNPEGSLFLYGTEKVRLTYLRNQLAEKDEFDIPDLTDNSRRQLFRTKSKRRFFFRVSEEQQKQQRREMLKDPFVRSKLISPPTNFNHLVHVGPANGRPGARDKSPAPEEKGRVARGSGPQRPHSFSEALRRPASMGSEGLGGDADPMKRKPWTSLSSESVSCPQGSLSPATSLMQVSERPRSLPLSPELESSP
Summary of the method: as §1

PRKCE (PKC epsilon) = biological target: T3, PRKCE (PKC epsilon) (Homo sapiens, UniProt Q02156); assay: SelectScreen ZLYTE; format: biochemical; conditions: INX-0315 at 100nM
T3 construct: purchased Thermo Fisher Scientific SelectScreen (plus Nanosyn / Reaction Biology for CDK/cyclin lines)
Summary of the method: as §1

PAK6 = biological target: T4, PAK6 (Homo sapiens, UniProt Q9NQU5); assay: SelectScreen ZLYTE; format: biochemical; conditions: INX-0315 at 100nM
T4 construct: purchased Thermo Fisher Scientific SelectScreen (plus Nanosyn / Reaction Biology for CDK/cyclin lines)
Summary of the method: as §1

HIPK1 (Myak) = biological target: T5, HIPK1 (Myak) (Homo sapiens, UniProt Q86Z02); assay: SelectScreen ZLYTE; format: biochemical; conditions: INX-0315 at 100nM
T5 construct: purchased Thermo Fisher Scientific SelectScreen (plus Nanosyn / Reaction Biology for CDK/cyclin lines)
T5 sequence (Q86Z02 whole entry): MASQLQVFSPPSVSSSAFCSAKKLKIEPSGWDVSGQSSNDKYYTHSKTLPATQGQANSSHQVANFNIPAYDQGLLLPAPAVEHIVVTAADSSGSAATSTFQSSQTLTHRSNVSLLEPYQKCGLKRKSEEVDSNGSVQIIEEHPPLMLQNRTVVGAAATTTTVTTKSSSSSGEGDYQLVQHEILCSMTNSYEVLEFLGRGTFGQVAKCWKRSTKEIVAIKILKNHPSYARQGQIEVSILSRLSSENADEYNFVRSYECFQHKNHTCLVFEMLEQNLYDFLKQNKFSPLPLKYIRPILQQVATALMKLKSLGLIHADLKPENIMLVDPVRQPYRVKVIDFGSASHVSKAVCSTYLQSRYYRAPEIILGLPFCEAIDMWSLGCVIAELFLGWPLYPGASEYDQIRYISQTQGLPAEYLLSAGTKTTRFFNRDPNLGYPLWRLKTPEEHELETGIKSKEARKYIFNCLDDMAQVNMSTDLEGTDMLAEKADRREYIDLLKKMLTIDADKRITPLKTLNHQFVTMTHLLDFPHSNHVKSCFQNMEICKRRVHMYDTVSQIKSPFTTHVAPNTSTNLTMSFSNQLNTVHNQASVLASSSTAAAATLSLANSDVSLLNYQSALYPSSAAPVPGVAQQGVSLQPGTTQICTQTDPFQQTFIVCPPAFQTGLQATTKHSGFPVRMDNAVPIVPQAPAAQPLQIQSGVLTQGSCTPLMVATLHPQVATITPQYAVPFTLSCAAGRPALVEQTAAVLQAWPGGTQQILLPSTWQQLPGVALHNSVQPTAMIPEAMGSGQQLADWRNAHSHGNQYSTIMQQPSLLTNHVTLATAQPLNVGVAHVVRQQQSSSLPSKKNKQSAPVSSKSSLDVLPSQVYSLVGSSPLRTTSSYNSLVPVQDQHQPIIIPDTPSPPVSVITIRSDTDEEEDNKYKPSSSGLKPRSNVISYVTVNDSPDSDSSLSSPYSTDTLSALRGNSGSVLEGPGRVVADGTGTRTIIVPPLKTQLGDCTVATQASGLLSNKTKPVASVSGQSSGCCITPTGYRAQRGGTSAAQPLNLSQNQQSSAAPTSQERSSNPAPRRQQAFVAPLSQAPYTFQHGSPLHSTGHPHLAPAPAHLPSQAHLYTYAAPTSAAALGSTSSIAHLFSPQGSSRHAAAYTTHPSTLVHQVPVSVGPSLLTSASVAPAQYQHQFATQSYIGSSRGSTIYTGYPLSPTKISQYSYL
Summary of the method: as §1

ROS1 = biological target: T6, ROS1 (Homo sapiens, UniProt P08922); assay: SelectScreen ZLYTE; format: biochemical; conditions: INX-0315 at 100nM
T6 construct: purchased Thermo Fisher Scientific SelectScreen (plus Nanosyn / Reaction Biology for CDK/cyclin lines)
Summary of the method: as §1

TBK1 = biological target: T7, TBK1 (Homo sapiens, UniProt Q9UHD2); assay: SelectScreen ZLYTE; format: biochemical; conditions: INX-0315 at 100nM
T7 construct: purchased Thermo Fisher Scientific SelectScreen (plus Nanosyn / Reaction Biology for CDK/cyclin lines)
Summary of the method: as §1

PAK2 (PAK65) = biological target: T8, PAK2 (PAK65) (Homo sapiens, UniProt Q13177); assay: SelectScreen ZLYTE; format: biochemical; conditions: INX-0315 at 100nM
T8 construct: purchased Thermo Fisher Scientific SelectScreen (plus Nanosyn / Reaction Biology for CDK/cyclin lines)
T8 sequence (Q13177 whole entry): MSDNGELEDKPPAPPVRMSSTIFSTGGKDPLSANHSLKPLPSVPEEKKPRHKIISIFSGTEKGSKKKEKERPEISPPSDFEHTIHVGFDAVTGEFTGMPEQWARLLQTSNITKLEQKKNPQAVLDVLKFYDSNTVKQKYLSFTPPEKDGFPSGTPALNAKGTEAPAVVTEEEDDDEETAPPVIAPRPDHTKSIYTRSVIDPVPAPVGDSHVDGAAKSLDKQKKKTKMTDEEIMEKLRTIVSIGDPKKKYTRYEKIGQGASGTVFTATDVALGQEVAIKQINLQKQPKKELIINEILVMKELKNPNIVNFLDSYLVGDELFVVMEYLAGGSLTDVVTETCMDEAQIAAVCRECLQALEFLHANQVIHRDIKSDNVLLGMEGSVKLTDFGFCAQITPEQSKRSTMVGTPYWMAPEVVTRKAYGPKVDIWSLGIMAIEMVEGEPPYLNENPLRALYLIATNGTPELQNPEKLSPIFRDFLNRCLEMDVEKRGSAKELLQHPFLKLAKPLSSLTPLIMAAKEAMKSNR
Summary of the method: as §1

NEK6 = biological target: T9, NEK6 (Homo sapiens, UniProt Q9HC98); assay: SelectScreen ZLYTE; format: biochemical; conditions: INX-0315 at 100nM
T9 construct: purchased Thermo Fisher Scientific SelectScreen (plus Nanosyn / Reaction Biology for CDK/cyclin lines)
Summary of the method: as §1

MAPK11 (p38 beta) = biological target: T10, MAPK11 (p38 beta) (Homo sapiens, UniProt Q15759); assay: SelectScreen ZLYTE; format: biochemical; conditions: INX-0315 at 100nM
T10 construct: purchased Thermo Fisher Scientific SelectScreen (plus Nanosyn / Reaction Biology for CDK/cyclin lines)
Summary of the method: as §1

TYRO3 (RSE) = biological target: T11, TYRO3 (RSE) (Homo sapiens, UniProt Q06418); assay: SelectScreen ZLYTE; format: biochemical; conditions: INX-0315 at 100nM
T11 construct: purchased Thermo Fisher Scientific SelectScreen (plus Nanosyn / Reaction Biology for CDK/cyclin lines)
Summary of the method: as §1

PRKCA (PKC alpha) = biological target: T12, PRKCA (PKC alpha) (Homo sapiens, UniProt P17252); assay: SelectScreen ZLYTE; format: biochemical; conditions: INX-0315 at 100nM
T12 construct: purchased Thermo Fisher Scientific SelectScreen (plus Nanosyn / Reaction Biology for CDK/cyclin lines)
Summary of the method: as §1

NTRK1 (TRKA) = biological target: T13, NTRK1 (TRKA) (Homo sapiens, UniProt P04629); assay: SelectScreen ZLYTE; format: biochemical; conditions: INX-0315 at 100nM
T13 construct: purchased Thermo Fisher Scientific SelectScreen (plus Nanosyn / Reaction Biology for CDK/cyclin lines)
T13 sequence (P04629 33-796): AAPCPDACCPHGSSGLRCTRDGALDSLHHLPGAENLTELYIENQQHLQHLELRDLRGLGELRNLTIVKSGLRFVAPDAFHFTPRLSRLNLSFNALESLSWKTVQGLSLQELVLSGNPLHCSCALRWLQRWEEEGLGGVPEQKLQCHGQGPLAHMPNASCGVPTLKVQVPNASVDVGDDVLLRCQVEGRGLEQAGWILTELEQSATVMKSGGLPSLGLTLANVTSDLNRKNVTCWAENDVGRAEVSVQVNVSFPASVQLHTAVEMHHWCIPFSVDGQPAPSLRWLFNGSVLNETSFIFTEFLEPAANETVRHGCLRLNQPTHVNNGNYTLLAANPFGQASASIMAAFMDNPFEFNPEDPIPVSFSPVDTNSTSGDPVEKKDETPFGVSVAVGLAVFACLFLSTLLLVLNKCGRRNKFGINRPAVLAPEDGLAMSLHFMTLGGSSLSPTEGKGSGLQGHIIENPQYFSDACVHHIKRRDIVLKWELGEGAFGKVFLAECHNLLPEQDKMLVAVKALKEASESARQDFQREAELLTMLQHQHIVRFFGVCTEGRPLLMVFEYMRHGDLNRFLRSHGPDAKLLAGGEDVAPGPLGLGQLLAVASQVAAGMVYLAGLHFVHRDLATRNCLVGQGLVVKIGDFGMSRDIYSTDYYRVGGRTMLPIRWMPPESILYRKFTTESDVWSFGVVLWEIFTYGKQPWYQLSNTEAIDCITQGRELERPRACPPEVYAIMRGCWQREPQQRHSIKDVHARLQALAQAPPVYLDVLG
Summary of the method: as §1

MAPK9 (JNK2) = biological target: T14, MAPK9 (JNK2) (Homo sapiens, UniProt P45984); assay: SelectScreen ZLYTE; format: biochemical; conditions: INX-0315 at 100nM
T14 construct: purchased Thermo Fisher Scientific SelectScreen (plus Nanosyn / Reaction Biology for CDK/cyclin lines)
Summary of the method: as §1

CDC42 BPA (MRCKA) = biological target: T15, CDC42 BPA (MRCKA) (Homo sapiens, UniProt Q5VT25); assay: SelectScreen ZLYTE; format: biochemical; conditions: INX-0315 at 100nM
T15 construct: purchased Thermo Fisher Scientific SelectScreen (plus Nanosyn / Reaction Biology for CDK/cyclin lines)
Summary of the method: as §1

IRAK4 = biological target: T16, IRAK4 (Homo sapiens, UniProt Q9NWZ3); assay: SelectScreen ZLYTE; format: biochemical; conditions: INX-0315 at 100nM
T16 construct: purchased Thermo Fisher Scientific SelectScreen (plus Nanosyn / Reaction Biology for CDK/cyclin lines)
Summary of the method: as §1

PHKG1 = biological target: T17, PHKG1 (Homo sapiens, UniProt Q16816); assay: SelectScreen ZLYTE; format: biochemical; conditions: INX-0315 at 100nM
T17 construct: purchased Thermo Fisher Scientific SelectScreen (plus Nanosyn / Reaction Biology for CDK/cyclin lines)
T17 sequence (Q16816 whole entry): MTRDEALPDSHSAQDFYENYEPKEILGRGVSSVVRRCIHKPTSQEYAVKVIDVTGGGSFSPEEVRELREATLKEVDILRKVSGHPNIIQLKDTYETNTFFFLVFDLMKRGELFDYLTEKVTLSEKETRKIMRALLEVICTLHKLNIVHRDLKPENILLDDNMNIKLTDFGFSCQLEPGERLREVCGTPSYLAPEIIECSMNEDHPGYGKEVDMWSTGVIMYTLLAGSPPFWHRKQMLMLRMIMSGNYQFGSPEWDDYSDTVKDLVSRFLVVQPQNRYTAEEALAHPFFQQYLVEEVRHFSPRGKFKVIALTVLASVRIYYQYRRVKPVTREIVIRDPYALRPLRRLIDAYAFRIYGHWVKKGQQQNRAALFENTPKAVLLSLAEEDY
Summary of the method: as §1

ABL2 (Arg) = biological target: T18, ABL2 (Arg) (Homo sapiens, UniProt P42684); assay: SelectScreen ZLYTE; format: biochemical; conditions: INX-0315 at 100nM
T18 construct: purchased Thermo Fisher Scientific SelectScreen (plus Nanosyn / Reaction Biology for CDK/cyclin lines)
Summary of the method: as §1

[1] = biological target: T19, CSNK1E (CK1 epsilon) R178C (Homo sapiens, UniProt P49674, R178C); assay: SelectScreen ZLYTE; format: biochemical; conditions: INX-0315 at 100nM
T19 construct: purchased Thermo Fisher Scientific SelectScreen (plus Nanosyn / Reaction Biology for CDK/cyclin lines)
T19 sequence (P49674 whole entry R178C): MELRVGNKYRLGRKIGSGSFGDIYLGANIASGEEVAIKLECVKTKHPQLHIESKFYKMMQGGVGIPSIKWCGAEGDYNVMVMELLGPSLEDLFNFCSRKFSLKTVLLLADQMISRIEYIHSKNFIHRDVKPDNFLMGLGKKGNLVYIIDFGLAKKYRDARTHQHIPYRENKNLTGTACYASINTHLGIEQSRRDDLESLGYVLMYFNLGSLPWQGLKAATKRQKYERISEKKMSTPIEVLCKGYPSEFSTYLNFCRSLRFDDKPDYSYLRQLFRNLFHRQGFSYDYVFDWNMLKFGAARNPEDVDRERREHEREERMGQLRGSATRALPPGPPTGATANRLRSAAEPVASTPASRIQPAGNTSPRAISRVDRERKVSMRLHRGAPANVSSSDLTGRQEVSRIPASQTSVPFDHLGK
Summary of the method: as §1

[2] = system: gastric adenocarcinoma PDX GA0103; assay: PDX tumor growth; format: in vivo, mice; conditions: oral gavage, 56 days
Description: (§2) PDX models were performed by Crown Biosciences (OV5398, GA0103, and GA0114) or XenoSTART (ST4316B). Tumor fragments from stock mice were harvested and implanted subcutaneously into the flank of NOD/SCID mice (OV5398, RRID:IMSR_JAX:001303), BALB/c nude mice (GA0103 and GA0114, RRID:IMSR_RJ:BALB-C-NUDE), or athymic nude mice (Crl:NU(NCr)-Foxn1nu, RRID:IMSR_CRL:490) (ST4316B). For CDX models, female athymic nude mice (Crl:NU(NCr)-Foxn1nu, RRID:IMSR_CRL:490) were inoculated with 1 × 10^7 50% Cultrex OVCAR3 cells in the flank. Experiments performed using MMTV-rtTA/tetO-HER2 mice were performed at the Peter MacCallum Cancer Centre. Tumor formation was induced and sustained in female mice with doxycycline as previously described ([33]). Randomization and treatment in all models began when median tumor volume reached a maximum of 300 mm^3.
(§3) Mice were treated via oral gavage. INX-315 was prepared weekly in 100% PEG400; abemaciclib was prepared as previously described ([33]) and ribociclib (Selleckchem, S7440) was prepared weekly in 0.5% methyl cellulose. To generate abemaciclib-resistant MMTV-rtTA/tetO-HER2 tumors, mice were treated continuously with abemaciclib at a dose of 75 mg/kg until tumors resumed growth as described in text. At this point and in all other MMTV-rtTA/tetO-HER2 mice experiments, mice were randomized into treatment groups and abemaciclib was administered to indicated groups at a dose of 50 mg/kg. In all MMTV-rtTA/tetO-HER2 mice experiments, INX-315 was administered at a dose of 50 mg/kg twice daily. For PDX model ST4316B, ribociclib was administered at 50 mg/kg per day.

[3] = system: gastric adenocarcinoma PDX GA0114; assay: PDX tumor growth; format: in vivo, mice; conditions: 100 mg/kg twice daily, 5-week experiment
Description: as §2, §3

ST4316B PDX = assay: PDX tumor growth; format: in vivo, mice; conditions: monotherapy; ribociclib 50 mg/kg per day
Description: as §2, §3

[4] = Body weight of tumor-bearing mice; format: in vivo; conditions: mice treated with INX-315, CCNE1-amplified models
Description: as §2
Mice were treated via oral gavage. INX-315 was prepared weekly in 100% PEG400; abemaciclib was prepared as previously described ([33]) and ribociclib (Selleckchem, S7440) was prepared weekly in 0.5% methyl cellulose. To generate abemaciclib-resistant MMTV-rtTA/tetO-HER2 tumors, mice were treated continuously with abemaciclib at a dose of 75 mg/kg until tumors resumed growth as described in text. […]

Work on NS(=O)(=O)c1ccc(Nc2ncc3cc4n(c3n2)C2(CCCCC2)C(=O)NN4)cc1 [INX-315] yielded an inhibition at 0.1 µM (PIM1) of 1%, an inhibition at 0.1 µM (CDC42 BPG (MRCKG)) of 4% and an inhibition at 0.1 µM (PRKCE (PKC epsilon)) of 3%. The inhibition at 0.1 µM (PAK6) was 19%, the inhibition at 0.1 µM (HIPK1 (Myak)) was 6% and the inhibition at 0.1 µM (ROS1) was 19%. It also gave an inhibition at 0.1 µM (TBK1) of 5%, an inhibition at 0.1 µM (PAK2 (PAK65)) of 5% and an inhibition at 0.1 µM (NEK6) of 1%. It also gave an inhibition at 0.1 µM (MAPK11 (p38 beta)) of 7%, an inhibition at 0.1 µM (TYRO3 (RSE)) of 14% and an inhibition at 0.1 µM (PRKCA (PKC alpha)) of 9%. The inhibition at 0.1 µM (NTRK1 (TRKA)) was 44%, the inhibition at 0.1 µM (MAPK9 (JNK2)) was -1% and the inhibition at 0.1 µM (CDC42 BPA (MRCKA)) was -3%. The inhibition at 0.1 µM (IRAK4) was 10%, the inhibition at 0.1 µM (PHKG1) was 4% and the inhibition at 0.1 µM (ABL2 (Arg)) was 14%. For the same molecule, the inhibition at 0.1 µM [1] was 5%, the tumor growth ([2]; 100 mg/kg twice daily) was “tumor regression” and the tumor growth ([2]; all other treatment groups: 25, 50 mg/kg twice daily, 100 mg/kg once a day) was “significant growth inhibition”. For the same molecule, the tumor growth [3] was “significantly inhibited”, the tumor growth (ST4316B PDX) was “slowed tumor growth modestly” and the “loss of body weight during the studies” value [4] was ≤ 5%.
